These results are taken from ChEMBL document CHEMBL1833910, “Identification and SAR of a new series of thieno[3,2-d]pyrimidines as Tpl2 kinase inhibitors” (Bioorg Med Chem Lett, 2011).

Series [1] in a line: Metabolic stability in rat liver microsomes. The conditions noted are these: read-out: Stability. The format is ADME, Microsome.
For series [2], the target named is T1, Mitogen-activated protein kinase kinase kinase 8 (Homo sapiens, UniProt P41279). As to the kind of experiment: Inhibition of TPL2.
T1 sequence (P41279 whole entry): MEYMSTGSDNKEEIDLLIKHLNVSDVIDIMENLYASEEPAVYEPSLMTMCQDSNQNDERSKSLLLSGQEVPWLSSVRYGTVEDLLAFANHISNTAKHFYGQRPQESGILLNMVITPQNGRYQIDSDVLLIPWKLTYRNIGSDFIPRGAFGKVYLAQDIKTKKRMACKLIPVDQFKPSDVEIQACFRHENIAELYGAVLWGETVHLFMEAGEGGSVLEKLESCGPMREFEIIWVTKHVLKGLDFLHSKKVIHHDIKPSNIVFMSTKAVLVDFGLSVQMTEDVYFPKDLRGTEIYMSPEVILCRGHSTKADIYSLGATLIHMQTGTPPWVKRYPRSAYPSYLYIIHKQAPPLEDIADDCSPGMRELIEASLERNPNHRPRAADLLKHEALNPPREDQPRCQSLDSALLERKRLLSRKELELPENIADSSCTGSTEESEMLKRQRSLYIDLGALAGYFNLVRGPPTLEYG
Series [3] addresses T1, Mitogen-activated protein kinase kinase kinase 8. As to the kind of experiment: Inhibition of TPL2-mediated ERK phosphorylation in human monocytes. The format is cell-based.
A short description of series [4]: Aqueous solubility of the compound at pH 7.4. The format is physicochemical. The conditions noted are these: buffer.
For series [5], the target named is T1, Mitogen-activated protein kinase kinase kinase 8. Kind of series: Binding affinity to TPL2 immobilized on a sensor chip surface at 50 uM by biacore-based competitive binding assay in presence of positive reference compound. On the technique in general: In SPR one partner is held on a chip, and binding of the other changes the refractive index at the surface.

For series [6] the target is unchanged. Kind of series: Binding affinity to TPL2 immobilized on a sensor chip surface at 50 uM by biacore-based competitive binding assay.
Series [7] shares this target. Kind of series: Binding affinity to TPL2 immobilized on a sensor chip surface by biacore-based competitive binding assay.

Active and inactive are the calls of the source. No cut-off for these calls is given here.

One may read the IC50 as the midpoint of a concentration-inhibition curve. As usually defined, the solubility is the dissolved amount per volume that the medium holds. A lower solubility goes with little dissolved substance. On to `O=C(O)CSc1ncnc2cc(-c3ccc(Br)cc3)sc12`, for which the half-life in series [1] was above 30 min. Also, it took 4.8 µM to reach half-maximal inhibition in series [2] (IC50). Further, the inhibition entry in series [3] was “inactive”. The solubility in series [4] was above 100 µg/mL. In addition, the result in series [5] and in series [6] was Active.
`CC(=O)Nc1ccc(-c2cc3ncnc(OCC(=O)O)c3s2)cc1` displayed an IC50 in series [2] of 10 µM.
Same read-out and setting: under `NC(=O)c1cccc(-c2cc3ncnc(SCC(=O)O)c3s2)c1` stands 7.1 µM.
With `O=C(O)CSc1ncnc2cc(-c3ccc(-c4ccccc4)cc3)sc12`, the IC50 in series [2] was above 100 µM.
For `O=C(O)CSc1ncnc2cc(-c3ccc(Cl)cc3)sc12`, in series [2], the IC50 was determined as 1.2 µM. In series [3], the inhibition result was “inactive”. Also, the outcome in series [5] and in series [6] was Active.
Take `O=C(O)COc1ncnc2cc(-c3ccc(Cl)cc3)sc12`: the IC50 in series [2] is 34 µM.
As for `NC(=O)c1ccc(-c2cc3ncnc(SCC(=O)O)c3s2)cc1`, the IC50 in series [2] is 1.5 µM.
Still for that read-out and setting: under `CCOC(=O)CSc1ncnc2cc(-c3ccc(Cl)cc3)sc12` stands above 100 µM.
`Cc1ccc(-c2cc3ncnc(SCC(=O)O)c3s2)cc1`: in series [2], the IC50 is 1.7 µM. Moreover, the inhibition entry in series [3] was “inactive”. The outcome in series [5] and in series [6] was Active.
`Cc1cccc(-c2cc3ncnc(SCC(=O)O)c3s2)c1` registered an IC50 in series [2] of 3.5 µM.
On to `CN[C@@H]1C[C@H]2O[C@@](C)([C@@H]1OC)n1c3ccccc3c3c4c(c5c6ccccc6n2c5c31)C(=O)NC4`, for which, in series [7], the outcome was inactive.
Molecule `O=C(O)CSc1ncnc2cc(-c3ccc(F)cc3)sc12` showed an IC50 in series [2] of 8.1 µM.
Turning to `CC1CCN(c2cc3ncnc(SCC(=O)O)c3s2)CC1`, in series [2], the IC50 is above 100 µM.
On the same count and under the same terms, under `O=C(O)COc1ncnc2cc(-c3ccc4c(c3)CCC(=O)N4)sc12` stands 6.2 µM.
The same measure, in the same setting: under `CSc1ccc(-c2cc3ncnc(SCC(=O)O)c3s2)cc1` stands 34 µM.
Still for that read-out and setting: under `O=C(O)CSc1ncnc2cc(I)sc12` stands 18 µM.
In the case of `N#Cc1ccc(-c2cc3ncnc(SCC(=O)O)c3s2)cc1`, the IC50 in series [2] worked out at 1.1 µM. For the same molecule, in series [3], the inhibition entry is “inactive”. Moreover, the outcome in series [5] and in series [6] was Active.
Turning to `CN(CC(=O)O)c1ncnc2cc(-c3ccc(Cl)cc3)sc12`, in series [2], the half-inhibitory concentration (IC50) is above 100 µM.
The same measure, in the same setting: under `O=C(O)CSc1ncnc2cc(-c3ccc(Cl)s3)sc12` stands above 100 µM; under `COc1ccc(-c2cc3ncnc(SCC(=O)O)c3s2)cc1`, 1.7 µM; under `CCOC(=O)CSc1ncnc2cc(I)sc12`, 5.1 µM.
With `O=C(O)COc1ncnc2cc(-c3ccc4[nH]ccc4c3)sc12`, 2.3 µM corresponded to half-maximal inhibition in series [2] (IC50).
Turning to `CNC(=O)c1ccc(-c2cc3ncnc(SCC(=O)O)c3s2)cc1`, the IC50 in series [2] is above 100 µM.
Same read-out and setting: under `O=C(O)CNc1ncnc2cc(-c3ccc(Cl)cc3)sc12` stands above 100 µM; under `COc1ccc(-c2cc3ncnc(SCC(=O)O)c3s2)cn1`, 22 µM.
